This assay has as its system H460 non-cell lung cancer human tumor cell line. Kind of assay: In vitro human tumor cell line cytotoxicity (proliferation) assay, AlamarBlue. The class given is cell-based. Here is the method: IC50 values are reported in micromolar and result from exposure of compound at various concentrations for 2 hrs followed by a wash step and addition of fresh media followed by growth and cell viability staining and comparison to a media only treated control.
Specifically, exponentially growing cells are seeded at a density of 4×10^3 cells per well in a 96 well plate and incubated at 37° C. in 5% CO2, 95% air and 100% relative humidity for 24 hours prior to addition of test compounds. Compounds are solubilized in 100% DMSO at 200 times the desired final test concentration. At the time of drug addition, compounds are further diluted to 4 times the desired final concentration with complete medium. Aliquots of 50 μl of compound at specified concentrations are added to microtiter wells already containing 150 μl of medium, resulting in the final drug concentration reported. After drug addition, the plates are incubated for an additional 2 hours at 37° C., 5% CO2, 95% air, and 100% relative humidity, then the drug is washed off and fresh medium is added and the plates are incubated for addition 70 hrs at 37° C., 5% CO2, 95% air and 100% relative humidity. At the end of this incubation, the viable cells are quantified using the AlamarBlue assay. The drug concentration resulting in growth inhibition of 50% (IC50) is calculated using Prism software (Irvine, Calif.), and the results are listed in the table.
A general note: Alamar Blue is a resazurin reagent that responds to reducing activity.

Where [1] appears, read: Homo sapiens, NCI-H460, H460 cells, under air, 2 hrs exposure, wash, then 70 hrs growth, read-out: IC50 (air).
[2] abbreviates: Homo sapiens, NCI-H460, H460 cells, under nitrogen, 2 hrs exposure, wash, then 70 hrs growth, read-out: IC50 (N2).
[3] abbreviates: H460 cells, under air, 2 hrs exposure, wash, then 70 hrs growth, read-out: IC50 (air).
[4] abbreviates: H460 cells, under nitrogen, 2 hrs exposure, wash, then 70 hrs growth, read-out: IC50 (N2).

Read-outs that look alike come from different tables or passages of the source.

In patent US10668047B2, “Aziridine containing DNA alkylating agents” (priority 2015, dated 2020) one finds IC50 data, which are given here for 41 molecules.

As usually defined, the IC50 is the midpoint of a concentration-inhibition curve. For `CC(OP(=O)(N1CC1)N1CC1)c1ccc([N+](=O)[O-])c(-n2nccn2)c1` (stereo not shown) [compound 2771], the IC50 runs as follows: under setting [1], 14000 nM; under setting [2], 30 nM.
On to `CC(OP(=O)(N1CC1)N1CC1)c1ccc([N+](=O)[O-])c(Nc2ccc([N+](=O)[O-])cc2)c1` (stereo not shown) [compound 2697], for which the IC50 (Homo sapiens, NCI-H460, read-out: IC50 (N2), H460 cells, under nitrogen, 2 hrs exposure, wash, then 70 hrs growth) turned out to be 500 nM and the half-inhibitory concentration (IC50) (Homo sapiens, NCI-H460, read-out: IC50 (air), H460 cells, under air, 2 hrs exposure, wash, then 70 hrs growth) was found to be 1500 nM.
In the case of `CC(C)C(OP(=O)(N1CC1)N1CC1)c1ncc([N+](=O)[O-])n1C` (stereo not shown) [compound 2518], the IC50 by setting is: under setting [1], 420000 nM; under setting [2], 600 nM.
For `CC(OP(=O)(N1CC1)N1CC1)c1ccc([N+](=O)[O-])c(N)c1` (stereo not shown) [compound 2692], the concentration for half-maximal inhibition (IC50) under setting [1] came to 6200 nM and the IC50 under setting [2] was 2700 nM.
On the same counts, the results for `O=[N+]([O-])c1ccc(COP(=O)(N2CC2)N2CC2)c(Br)c1` [compound 2608] are 3100 nM and 300 nM.
For `CC(OP(=O)(N1CC1)N1CC1)c1ccc([N+](=O)[O-])c(-c2ccccc2F)c1` (stereo not shown) [compound 2786], in that order: 69000 nM and 2500 nM.
For `CC(OP(=O)(N1CC1)N1CC1)c1ccc([N+](=O)[O-])c(-c2cccc(C(F)(F)F)c2)c1` (stereo not shown) [compound 2802], the half-inhibitory concentration (IC50) was 22000 nM under setting [1] and 2800 nM under setting [2].
On to `Cn1c([N+](=O)[O-])cnc1C(OP(=O)(N1CC1)N1CC1)C1CCCC1` (stereo not shown) [compound 2561], for which the IC50 runs as follows: under setting [1], 29000 nM; under setting [2], 200 nM.
For `CC(OP(=O)(N1CC1)N1CC1)c1c([N+](=O)[O-])ncn1C` (stereo not shown) [compound 2560], in that order: 40000 nM and 3700 nM.
On the same counts, the results for `Cc1cc(COP(=O)(N2CC2)N2CC2)ccc1[N+](=O)[O-]` [compound 2580] are 20000 nM and 3700 nM.
For `Cn1c([N+](=O)[O-])nc(-c2ccco2)c1COP(=O)(N1CC1)N1CC1` [compound 2141], in that order: 500 nM and 80 nM.
Regarding `Cc1ccc(COP(=O)(N2CC2)N2CC2)c([N+](=O)[O-])c1` [compound 2590], the IC50 by setting is: under setting [1], 15000 nM; under setting [2], 2900 nM.
For `O=[N+]([O-])c1ccc(C(OP(=O)(N2CC2)N2CC2)C(F)(F)F)o1` (stereo not shown) [compound 2139], in that order: 300 nM and 4 nM.
For `CC(OP(=O)(N1CC1)N1CC1)c1ccc([N+](=O)[O-])c(C(F)(F)F)c1` (stereo not shown) [compound 2613], in that order: 26000 nM and 300 nM.
On the same counts, the results for `CC1=NCCN1c1cc(C(C)OP(=O)(N2CC2)N2CC2)ccc1[N+](=O)[O-]` (stereo not shown) [compound 2722] are 5000 nM and 900 nM.
`Cn1c([N+](=O)[O-])nc(-c2cc(Cl)c(Cl)s2)c1COP(=O)(N1CC1)N1CC1` [compound 2525]: the IC50 by setting is: under setting [1], 700 nM; under setting [2], 20 nM.
On the same counts, the results for `CC(OP(=O)(N1CC1)N1CC1)c1ccc([N+](=O)[O-])c(N2CCC(c3ccccc3)CC2)c1` (stereo not shown) [compound 2750] are 23000 nM and 2400 nM.
For `CC(C)(C)C(OP(=O)(N1CC1)N1CC1)c1ccc([N+](=O)[O-])o1` (stereo not shown) [compound 2127], in that order: 18000 nM and 20 nM.
For `CC(OP(=O)(N1CC1)N1CC1)c1ccccc1[N+](=O)[O-]` (stereo not shown) [compound 2547], in that order: 320000 nM and 2600 nM.
With `CCCC(OP(=O)(N1CC1)N1CC1)c1c(C)cccc1[N+](=O)[O-]` (stereo not shown) [compound 2610], the IC50 is, setting by setting: under setting [1], 350000 nM; under setting [2], 51000 nM.
On the same counts, the results for `CC(C)C(OP(=O)(N1CC1)N1CC1)c1ncc([N+](=O)[O-])n1CCN1CCOCC1` (stereo not shown) [compound 2544] are 45000 nM and 200 nM.
For `CC(OP(=O)(N1CC1)N1CC1)c1ccc([N+](=O)[O-])c(N(C)CCN(C)C)c1` (stereo not shown) [compound 2736], in that order: 150000 nM and 2800 nM.
With `COc1cc([N+](=O)[O-])ccc1COP(=O)(N1CC1)N1CC1` [compound 2554], the IC50 by setting is: under setting [1], 3000 nM; under setting [2], 100 nM.
For `O=[N+]([O-])c1ccc(C(CCO)OP(=O)(N2CC2)N2CC2)cc1` (stereo not shown) [compound 2714], in that order: 94000 nM and 500 nM.
For `CC(OP(=O)(N1CC1)N1CC1)c1ccc([N+](=O)[O-])c(-n2cccn2)c1` (stereo not shown) [compound 2748], the IC50 under setting [1] was 38000 nM and the IC50 under setting [2] was 300 nM.
Regarding `Cc1cc(C(C)OP(=O)(N2CC2)N2CC2)ccc1[N+](=O)[O-]` (stereo not shown) [compound 2672], the IC50 runs as follows: under setting [1], 180000 nM; under setting [2], 3100 nM.
On to `CC(OP(=O)(N1CC1)N1CC1)c1ccc([N+](=O)[O-])c(N2CCN(C)CC2)c1` (stereo not shown) [compound 2702], for which the IC50 runs as follows: under setting [1], 47000 nM; under setting [2], 800 nM.
As for `CC(OP(=O)(N1CC1)N1CC1)c1ccc([N+](=O)[O-])o1` (stereo not shown) [compound 2138], the IC50 runs as follows: under setting [1], 300 nM; under setting [2], 6 nM.
For `CC(OP(=O)(N1CC1)N1CC1)c1ccc([N+](=O)[O-])c(N2CCN(C(C)C)CC2)c1` (stereo not shown) [compound 2751], in that order: 36000 nM and 1700 nM.
On the same counts, the results for `O=[N+]([O-])c1ccc(COP(=O)(N2CC2)N2CC2)c(Cl)c1` [compound 2576] are 1800 nM and 100 nM.
For `Cn1c([N+](=O)[O-])nc(C(F)F)c1COP(=O)(N1CC1)N1CC1` [compound 2137], in that order: 2200 nM and 20 nM.
As to `CC(OP(=O)(N1CC1)N1CC1)c1ccc([N+](=O)[O-])c(O)c1` (stereo not shown) [compound 2621], the IC50 runs as follows: under setting [1], 39000 nM; under setting [2], 300 nM.
For `CC(OP(=O)(N1CC1)N1CC1)c1ccc([N+](=O)[O-])c(-n2c(N)nc3ccccc32)c1` (stereo not shown) [compound 2798], in that order: 32000 nM and 600 nM.
On the same counts, the results for `CCC(CC)C(OP(=O)(N1CC1)N1CC1)c1ncc([N+](=O)[O-])n1C` (stereo not shown) [compound 2609] are 370000 nM and 400 nM.
`CC(C)C(OP(=O)(N1CC1)N1CC1)c1ncc([N+](=O)[O-])n1C` (stereo not shown) [compound 2567]: the IC50 turned out to be 270000 nM under setting [3] and 300 nM under setting [4].
`Cc1cc([N+](=O)[O-])ccc1COP(=O)(N1CC1)N1CC1` [compound 2556]: the IC50 turned out to be 17000 nM under setting [1] and 700 nM under setting [2].
For `O=[N+]([O-])c1cc(Cl)c(COP(=O)(N2CC2)N2CC2)c(Cl)c1` [compound 2602], in that order: 250 nM and 20 nM.
In the case of `CC(OP(=O)(N1CC1)N1CC1)c1ccc([N+](=O)[O-])c(-n2ccnc2)c1` (stereo not shown) [compound 2804], the half-maximal inhibitory concentration (IC50) by setting is: under setting [3], 310000 nM; under setting [4], 600 nM.
Consider `CC(OP(=O)(N1CC1)N1CC1)c1ccc([N+](=O)[O-])c(Nc2ccccc2)c1` (stereo not shown) [compound 2693], for which the IC50 runs as follows: under setting [1], 1900 nM; under setting [2], 400 nM.
On the same counts, the results for `C=CCC(OP(=O)(N1CC1)N1CC1)c1ncc([N+](=O)[O-])n1C` (stereo not shown) [compound 2527] are 39000 nM and 90 nM.
As to `CC(OP(=O)(N1CC1)N1CC1)c1ccc([N+](=O)[O-])c(-c2ccccc2C(F)(F)F)c1` (stereo not shown) [compound 2799], the IC50 by setting is: under setting [1], 37000 nM; under setting [2], 2300 nM.
